# Tests used:
# [1] = log P by HPLC on reversed-phase column (C 18), EEC Directive 79/831 Annex V.A8; assay type: physicochemical; conditions: HPLC on reversed-phase column (C 18), 40° C., 0.1% aqueous formic acid and acetonitrile, linear gradient 10% to 90% acetonitrile
# In short: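 Calibration relied on straight-chain alkan-2-ones with 3 to 16 carbon atoms and known log P, with sample values read by linear interpolation of retention time between two adjacent standards. Separation at 40° C used 0.1% aqueous formic acid with acetonitrile rising linearly from 10% to 90%. UV spectra from 200 nm to 400 nm at chromatographic peak maxima gave lambda-max.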
# Sphaerotheca fuliginea = experiment: In vivo preventive test on Sphaerotheca fuliginea (cucumber); conditions: 500 ppm of active ingredient, evaluated 7 days after inoculation
# Description: Solvent: 49 parts by weight of N,N-dimethylformamide Emulsifier: 1 part by weight of Alkylarylpolyglycolether To produce a suitable preparation of active compound, 1 part by weight of active compound is mixed with the stated amounts of solvent and emulsifier, and the concentrate is diluted with water to the desired concentration. To test for preventive activity, young plants are sprayed with the preparation of active compound at the stated rate of application. One day after this treatment, the plants are inoculated with an aqueous spore suspension of Sphaerotheca fuliginea. Then the plants are placed in a greenhouse at approximately 23° C. and a relative atmospheric humidity of approximately 70%. The test is evaluated 7 days after the inoculation. 0% means an efficacy which corresponds to that of the untreated control, while an efficacy of 100% means that no disease is observed.
# Alternaria solani = experiment: In vivo preventive test on Alternaria solani (tomato); conditions: 500 ppm of active ingredient, evaluated 7 days after inoculation
# Description: Solvent: 49 parts by weight of N,N-dimethylformamide Emulsifier: 1 part by weight of Alkylarylpolyglycolether To produce a suitable preparation of active compound, 1 part by weight of active compound is mixed with the stated amounts of solvent and emulsifier, and the concentrate is diluted with water to the desired concentration. To test for preventive activity, young plants are sprayed with the preparation of active compound at the stated rate of application. One day after this treatment, the plants are inoculated with an aqueous spore suspension of Alternaria solani. The plants remain for one day in an incubation cabinet at approximately 22° C. and a relative atmospheric humidity of 100%. Then the plants are placed in an incubation cabinet at approximately 20° C. and a relative atmospheric humidity of 96%. The test is evaluated 7 days after the inoculation. 0% means an efficacy which corresponds to that of the untreated control while an efficacy of 100% means that no disease is observed.
# Pyrenophora teres = experiment: In vivo preventive test on Pyrenophora teres (barley); conditions: 500 ppm of active ingredient, evaluated 7-9 days after inoculation
# In short: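 Young barley plants sprayed with compound in DMF/alkylaryl polyglycol ether emulsion; inoculated with P. teres spores one day later. 48 h at 22 °C, 100% humidity, then greenhouse ~20 °C, ~80% humidity; efficacy scored 7-9 days post-inoculation, 0% = untreated, 100% = no disease.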
# Venturia inaequalis = experiment: In vivo preventive test on Venturia inaequalis (apple scab); conditions: 100 ppm of active ingredient, evaluated 10 days after inoculation
# Description: (§1) Solvent: 24.5 parts by weight of acetone • 24.5 parts by weight of N,N-dimethylacetamide Emulsifier: 1 part by weight of alkylaryl polyglycol ether To produce a suitable preparation of active compound, 1 part by weight of active compound is mixed with the stated amounts of solvent and emulsifier, and the concentrate is diluted with water to the desired concentration. To test for preventive activity, young plants are sprayed with the preparation of active compound at the stated rate of application. After the spray coating has dried on, the plants are inoculated with an aqueous conidia suspension of the causal agent of apple scab (Venturia inaequalis) and then remain for 1 day in an incubation cabinet at approximately 20° C. and a relative atmospheric humidity of 100%. The plants are then placed in a greenhouse at approximately 21° C. and a relative atmospheric humidity of approximately 90%. The test is evaluated 10 days after the inoculation. 0% means an efficacy which corresponds to that of the untreated control, while an efficacy of 100% means that no disease is observed.
# Uromyces appendiculatus = experiment: In vivo preventive test on Uromyces appendiculatus (bean rust); conditions: 100 ppm of active ingredient, evaluated 10 days after inoculation
# Description: as §1, with “spore” for “conidia”, “bean rust (Uromyces appendiculatus)” for “apple scab (Venturia inaequalis)”
# Septoria tritici = experiment: In vivo preventive test on Septoria tritici (wheat); conditions: 500 ppm of active ingredient, evaluated 21 days after inoculation
# Description: Solvent: 49 parts by weight of N,N-dimethylacetamide Emulsifier: 1 part by weight of alkylaryl polyglycol ether To produce a suitable preparation of active compound, 1 part by weight of active compound or active compound combination is mixed with the stated amounts of solvent and emulsifier, and the concentrate is diluted with water to the desired concentration. To test for preventive activity, young plants are sprayed with the preparation of active compound or active compound combination at the stated rate of application. After the spray coating has been dried, the plants are sprayed with a spore suspension of Septoria tritici. The plants remain for 48 hours in an incubation cabinet at approximately 20° C. and a relative atmospheric humidity of approximately 100% and afterwards for 60 hours at approximately 15° C. in a translucent incubation cabinet at a relative atmospheric humidity of approximately 100%. The plants are placed in the greenhouse at a temperature of approximately 15° C. and a relative atmospheric humidity of approximately 80%. The test is evaluated 21 days after the inoculation. 0% means an efficacy which corresponds to that of the untreated control, while an efficacy of 100% means that no disease is observed.
# [2] = test system: Blumeria graminis f. sp. hordei; experiment: In vivo preventive test on Blumeria graminis (barley); conditions: 500 ppm of active ingredient, evaluated 7 days after inoculation
# Description: Solvent: 49 parts by weight of N,N-dimethylacetamide Emulsifier: 1 part by weight of alkylaryl polyglycol ether To produce a suitable preparation of active compound, 1 part by weight of active compound or active compound combination is mixed with the stated amounts of solvent and emulsifier, and the concentrate is diluted with water to the desired concentration. To test for preventive activity, young plants are sprayed with the preparation of active compound or active compound combination at the stated rate of application. After the spray coating has been dried, the plants are dusted with spores of Blumeria graminis f. sp. hordei. The plants are placed in the greenhouse at a temperature of approximately 18° C. and a relative atmospheric humidity of approximately 80% to promote the development of mildew pustules. The test is evaluated 7 days after the inoculation. 0% means an efficacy which corresponds to that of the untreated control, while an efficacy of 100% means that no disease is observed.
SMILES,chromatographic logP ([1]; reversed-phase HPLC column (C 18)),logP [1],Efficacy (Sphaerotheca fuliginea) [%],Efficacy (Alternaria solani) [%],Efficacy (Pyrenophora teres) [%],Efficacy (Venturia inaequalis) [%],Efficacy (Uromyces appendiculatus) [%],Efficacy (Septoria tritici) [%],Efficacy [2] [%]
"Cc1ccccc1C1CCCCN1C(=O)c1c(C)nn(C)c1F (stereo not drawn) [Example 1, (5-fluoro-1,3-dimethyl-1H-pyrazol-4-yl)[2-(2-methylphenyl)-piperidin-1-yl]methanone]",2.71,,95,95,100,99,100,100,89
CCc1nn(C)c(F)c1C(=O)N1CCCCC1c1ccccc1C (stereo not drawn) [Example 4],,3.06,95,95,100,,,100,78
Cc1nn(C)c(F)c1C(=O)N1CCCCC1c1ccccc1Cl (stereo not drawn) [Example 36],,2.89,89,95,100,,,80,
CCc1nn(C)c(F)c1C(=O)N1CCCCC1c1ccccc1Cl (stereo not drawn) [Example 37],,3.19,70,95,95,,,80,
CCc1nn(C)c(F)c1C(=O)N1CCCCC1c1cccc(Cl)c1 (stereo not drawn) [Example 43],,3.31,,95,100,,,80,
Cc1nn(C)c(F)c1C(=O)N1CCCCC1c1cccc(Cl)c1 (stereo not drawn) [Example 44],,2.94,89,95,100,,,90,
Cc1nn(C)c(F)c1C(=O)N1CCCCC1c1ccc(Cl)cc1 (stereo not drawn) [Example 51],,2.98,,95,100,,,100,
Cc1nn(C)c(F)c1C(=O)N1CCCCC1c1cccc(Cl)c1Cl (stereo not drawn) [Example 73],,3.25,85,95,100,,,80,
Cc1nn(C)c(F)c1C(=O)N1CCCCC1c1ccc(Cl)cc1Cl (stereo not drawn) [Example 76],,3.39,,90,100,,,100,
Cc1nn(C)c(F)c1C(=O)N1CCCCC1c1cc(Cl)ccc1Cl (stereo not drawn) [Example 83],,3.29,94,95,100,,,80,
Cc1cc(C(=O)N2CCCCC2c2ccccc2Br)c(C)o1 (stereo not drawn) [Example 86],,3.96,,90,90,,,78,

# Now from value to compound, other results behind:
chromatographic logP ([1]; reversed-phase HPLC column (C 18)),logP [1],SMILES,Efficacy (Sphaerotheca fuliginea) [%],Efficacy (Alternaria solani) [%],Efficacy (Pyrenophora teres) [%],Efficacy (Venturia inaequalis) [%],Efficacy (Uromyces appendiculatus) [%],Efficacy (Septoria tritici) [%],Efficacy [2] [%]
,3.25,CCc1nn(C)c(F)c1C(=O)N1CCCCC1c1ccccc1Br (stereo not drawn) [Example 87],,95,100,,,89,
,2.99,Cc1nn(C)c(F)c1C(=O)N1CCCCC1c1ccccc1Br (stereo not drawn) [Example 88],94,95,95,,,89,
,3.58,CCc1nn(C)c(F)c1C(=O)N1CCCCC1c1ccc2ccccc2c1 (stereo not drawn) [Example 117],,95,95,,,90,
,3.21,Cc1nn(C)c(F)c1C(=O)N1CCCCC1c1ccc2ccccc2c1 (stereo not drawn) [Example 118],,95,100,,,100,
,4.14,CC(c1ccccc1)C1CCCCN1C(=S)c1c(C(F)F)nn(C)c1F (stereo not drawn) [Example 139],95,95,100,,,,
,3.11,Cn1nc(C(F)F)c(C(=O)N2CCCCC2Cc2ccc(F)cc2)c1F (stereo not drawn) [Example 156],75,100,100,,,,
,3.72,CC(c1ccccc1Cl)C1CCCCN1C(=O)c1c(C(F)F)nn(C)c1F (stereo not drawn) [Example 163],98,100,100,,,,
,4.95,CCC(c1ccccc1Cl)C1CCCCN1C(=S)c1c(C(F)F)nn(C)c1F (stereo not drawn) [Example 165],100,90,100,99,73,,
,4.53,CC(c1ccccc1Cl)C1CCCCN1C(=S)c1c(C(F)F)nn(C)c1F (stereo not drawn) [Example 166],100,100,100,,,,
,3.25,CCc1nn(C)c(F)c1C(=O)N1CCCCC1CCc1ccccc1 (stereo not drawn) [Example 176],,90,95,,,70,
,3.57,Cn1nc(C(F)F)c(C(=O)N2CCCCC2CCOc2ccc(C(F)(F)F)cn2)c1F (stereo not drawn) [Example 196],70,100,100,,,,
